Results on 9 molecules are retold here after ChEMBL document CHEMBL1817568, “Novel hybrids of fluconazole and furanones: design, synthesis and antifungal activity” (2011).

Assay [1] relates to Candida albicans. Nature of the assay: Antifungal activity against Candida albicans ATCC 24433 at 8 ug/ml by broth dilution method. Type of assay: functional, organism-based. (Dilution methods test growth across graded concentrations, often in twofold steps.)
Assay [2] has as its system Aspergillus fumigatus. Put plainly: Antifungal activity against Aspergillus fumigatus ATCC 46645 at 8 ug/ml by broth dilution method. Type of assay: functional, organism-based.
Assay [3] concerns Pichia kudriavzevii. Nature of the assay: Antifungal activity against Candida krusei ATCC 6258 at 8 ug/ml by broth dilution method. Type of assay: functional, organism-based.
Assay [4] has as its system Nakaseomyces glabratus. Nature of the assay: Antifungal activity against Candida glabrata ATCC 90030 at 8 ug/ml by broth dilution method. Type of assay: functional, organism-based.
Assay [5] relates to Fusarium proliferatum. Nature of the assay: Antifungal activity against Fusarium proliferatum ATCC 10052 at 8 ug/ml by broth dilution method. Type of assay: functional, organism-based.
The test system of assay [6] is Cryptococcus neoformans. Nature of the assay: Antifungal activity against Cryptococcus neoformans ATCC 34664 at 8 ug/ml by broth dilution method. Type of assay: functional, organism-based.
Assay [7] relates to Aspergillus niger. Nature of the assay: Antifungal activity against Aspergillus niger ATCC 16404 at 8 ug/ml by broth dilution method. Type of assay: functional, organism-based.
Assay [8] deals with Cryptococcus neoformans. Put plainly: Antifungal activity against Cryptococcus neoformans ATCC 34664 by broth dilution method. Type of assay: functional.
The test system of assay [9] is Candida albicans. Nature of the assay: Antifungal activity against Candida albicans ATCC 24433 by broth dilution method. Type of assay: functional.
Assay [10] relates to Candida tropicalis. Nature of the assay: Antifungal activity against Candida tropicalis ATCC 750 by broth dilution method. Type of assay: functional.
In assay [11] the test system is Pichia kudriavzevii. Nature of the assay: Antifungal activity against Candida krusei ATCC 6258 at 16 ug/ml by broth dilution method. Type of assay: functional, organism-based.
For assay [12], the system named is Nakaseomyces glabratus. Put plainly: Antifungal activity against Candida glabrata ATCC 90030 by broth dilution method. Type of assay: functional.
Assay [13] concerns Pichia kudriavzevii. Nature of the assay: Antifungal activity against Candida krusei ATCC 6258 at 128 ug/ml by broth dilution method. Type of assay: functional, organism-based.
In assay [14] the test system is Fusarium proliferatum. Put plainly: Antifungal activity against Fusarium proliferatum ATCC 10052 at 128 ug/ml by broth dilution method. Type of assay: functional, organism-based.
Assay [15] concerns Aspergillus fumigatus. Put plainly: Antifungal activity against Aspergillus fumigatus ATCC 46645 at 128 ug/ml by broth dilution method. Type of assay: functional, organism-based.
Assay [16] deals with Aspergillus niger. Nature of the assay: Antifungal activity against Aspergillus niger ATCC 16404 at 128 ug/ml by broth dilution method. Type of assay: functional, organism-based.
Assay [17] has as its system Candida tropicalis. Nature of the assay: Antifungal activity against Candida tropicalis ATCC 750 at 128 ug/ml by broth dilution method. Type of assay: functional, organism-based.
Assay [18] concerns Cryptococcus neoformans. Nature of the assay: Antifungal activity against Cryptococcus neoformans ATCC 34664 at 16 ug/ml by broth dilution method. Type of assay: functional, organism-based.
The test system of assay [19] is Aspergillus fumigatus. Nature of the assay: Antifungal activity against Aspergillus fumigatus ATCC 46645 at 16 ug/ml by broth dilution method. Type of assay: functional, organism-based.
The subject of assay [20] is Fusarium proliferatum. Nature of the assay: Antifungal activity against Fusarium proliferatum ATCC 10052 at 16 ug/ml by broth dilution method. Type of assay: functional, organism-based.
The subject of assay [21] is Aspergillus niger. Nature of the assay: Antifungal activity against Aspergillus niger ATCC 16404 at 16 ug/ml by broth dilution method. Type of assay: functional, organism-based.
For assay [22], the system named is Cryptococcus neoformans. Put plainly: Antifungal activity against Cryptococcus neoformans ATCC 34664 at 4 ug/ml by broth dilution method. Type of assay: functional, organism-based.
Assay [23] concerns Candida albicans. Nature of the assay: Antifungal activity against Candida albicans ATCC 24433 at 4 ug/ml by broth dilution method. Type of assay: functional, organism-based.
Assay [24] deals with Aspergillus niger. Nature of the assay: Antifungal activity against Aspergillus niger ATCC 16404 at 4 ug/ml by broth dilution method. Type of assay: functional, organism-based.
Assay [25] relates to Candida tropicalis. Put plainly: Antifungal activity against Candida tropicalis ATCC 750 at 4 ug/ml by broth dilution method. Type of assay: functional, organism-based.
Assay [26] has as its system Pichia kudriavzevii. Put plainly: Antifungal activity against Candida krusei ATCC 6258 at 4 ug/ml by broth dilution method. Type of assay: functional, organism-based.
The subject of assay [27] is Nakaseomyces glabratus. Put plainly: Antifungal activity against Candida glabrata ATCC 90030 at 4 ug/ml by broth dilution method. Type of assay: functional, organism-based.
Assay [28] concerns Aspergillus fumigatus. Put plainly: Antifungal activity against Aspergillus fumigatus ATCC 46645 at 4 ug/ml by broth dilution method. Type of assay: functional, organism-based.
For assay [29], the system named is Fusarium proliferatum. Nature of the assay: Antifungal activity against Fusarium proliferatum ATCC 10052 at 4 ug/ml by broth dilution method. Type of assay: functional, organism-based.

In brackets after ≈: the same amount, converted by molar mass. Activity calls are given as the source filed them. No cut-off for these calls is given here.

For the molecule `O=C1OCC(c2ccc(F)cc2F)=C1c1ccc(Cl)cc1`, the result with Candida albicans [1], with Aspergillus fumigatus [2], in the assay with Pichia kudriavzevii [3], with Nakaseomyces glabratus [4], in the assay with Fusarium proliferatum [5] and with Cryptococcus neoformans [6] was inactive. The result with Aspergillus niger [7] was inactive.

The term MIC50 denotes an inhibitory concentration at the 50% level, which refers to growth in some studies and to a panel of isolates in others. High values mean lower susceptibility, low ones higher susceptibility. Turning to `COc1cc(C2=C(c3ccc(F)cc3)COC2=O)ccc1OCC(O)(Cn1cncn1)c1ccc(F)cc1F` (racemic), the MIC50 is 2 µg/mL (≈ 3.72 µM) with Cryptococcus neoformans [8], 0.5 µg/mL (≈ 0.93 µM) with Candida albicans [9], 2 µg/mL (≈ 3.72 µM) in the assay on Candida tropicalis [10] and 0.5 µg/mL (≈ 0.93 µM) against Nakaseomyces glabratus [12]. Moreover, the outcome with Aspergillus fumigatus [2], with Pichia kudriavzevii [11], in the assay on Fusarium proliferatum [5] and in the assay with Aspergillus niger [7] was inactive.

Turning to `O=C1OCC(c2cccs2)=C1c1ccc(OCC(O)(Cn2cncn2)c2ccc(F)cc2F)cc1` (racemic), the MIC50 in the assay with Candida albicans [9] came to 0.5 µg/mL (≈ 1.01 µM); with Candida tropicalis [10] it was 2 µg/mL (≈ 4.04 µM); in the assay on Nakaseomyces glabratus [12], 0.5 µg/mL (≈ 1.01 µM). Also, the result with Aspergillus fumigatus [2], in the assay on Pichia kudriavzevii [3], in the assay on Fusarium proliferatum [5], in the assay on Cryptococcus neoformans [6] and in the assay with Aspergillus niger [7] was inactive.

`COc1cc(C=O)cc(OC)c1OCC(O)(Cn1cncn1)c1ccc(F)cc1F` (racemic): the result in the assay on Pichia kudriavzevii [13], with Fusarium proliferatum [14], in the assay on Aspergillus fumigatus [15] and in the assay with Aspergillus niger [16] was inactive. For the same molecule, the MIC50 came out at 8 µg/mL (≈ 19.1 µM) in the assay with Cryptococcus neoformans [8], 1 µg/mL (≈ 2.38 µM) with Candida albicans [9], 64 µg/mL (≈ 153 µM) in the assay on Candida tropicalis [10] and 1 µg/mL (≈ 2.38 µM) in the assay on Nakaseomyces glabratus [12].

For the molecule `COc1ccc(C=O)cc1OCC(O)(Cn1cncn1)c1ccc(F)cc1F` (racemic), the result in the assay with Pichia kudriavzevii [13], in the assay on Candida tropicalis [17], with Fusarium proliferatum [14], in the assay on Aspergillus fumigatus [15] and in the assay with Aspergillus niger [16] was inactive. In addition, the MIC50 with Cryptococcus neoformans [8] is 16 µg/mL (≈ 41.1 µM); in the assay on Candida albicans [9], 2 µg/mL (≈ 5.14 µM); with Nakaseomyces glabratus [12], 2 µg/mL (≈ 5.14 µM).

`O=C(O)Cc1ccc(OCC(O)(Cn2cncn2)c2ccc(F)cc2F)cc1` (racemic): the result with Pichia kudriavzevii [13], in the assay on Fusarium proliferatum [14], with Aspergillus fumigatus [15] and in the assay on Aspergillus niger [16] was inactive. The MIC50 worked out at 64 µg/mL (≈ 164 µM) against Cryptococcus neoformans [8], 8 µg/mL (≈ 20.5 µM) in the assay on Candida albicans [9], 64 µg/mL (≈ 164 µM) with Candida tropicalis [10] and 8 µg/mL (≈ 20.5 µM) in the assay on Nakaseomyces glabratus [12].

As for `CC1(O)OC(=O)C(c2ccc(OCC(O)(Cn3cncn3)c3ccc(F)cc3F)cc2)=C1c1ccc(F)cc1F` (racemic), the outcome in the assay with Cryptococcus neoformans [18], in the assay on Aspergillus fumigatus [19], in the assay with Fusarium proliferatum [20], in the assay on Aspergillus niger [21] and in the assay with Pichia kudriavzevii [11] was inactive. Moreover, the MIC50 against Candida albicans [9] stood at 2 µg/mL (≈ 3.6 µM); in the assay with Candida tropicalis [10], 8 µg/mL (≈ 14.4 µM); with Nakaseomyces glabratus [12], 2 µg/mL (≈ 3.6 µM).

For the molecule `COc1ccc(/C=C2\N=C(c3ccccc3)OC2=O)cc1OCC(O)(Cn1cncn1)c1ccc(F)cc1F` (racemic), the result in the assay on Cryptococcus neoformans [22], with Candida albicans [23], in the assay on Aspergillus niger [24], in the assay with Candida tropicalis [25], in the assay with Pichia kudriavzevii [26] and with Nakaseomyces glabratus [27] was inactive. The outcome in the assay on Aspergillus fumigatus [28] and in the assay on Fusarium proliferatum [29] was inactive.

In the case of `COc1ccc(/C=C2\SC(=S)NC2=O)cc1OCC(O)(Cn1cncn1)c1ccc(F)cc1F` (racemic), the outcome in the assay on Candida albicans [1], in the assay on Aspergillus fumigatus [2], in the assay with Pichia kudriavzevii [3], with Nakaseomyces glabratus [4], in the assay on Fusarium proliferatum [5] and in the assay with Cryptococcus neoformans [6] was inactive. For the same molecule, in the assay with Aspergillus niger [7], the outcome was inactive.
